Data published in publication PMC4310329, “The length of a lantibiotic hinge region has profound influence on antimicrobial activity and host specificity” (Frontiers in Microbiology, 2015).

Assays:
L. monocytogenes = experiment: Agar well diffusion assay; type: cell-based, Listeria monocytogenes; settings: estimated from halo diameter by nisin standard curve, relative to wt
Method: (§1) L. lactis strains were cultured in M17 broth supplemented with 0.5% (w/v) glucose (GM17) or GM17 agar for genetic manipulation or in minimal expression medium (MEM) for protein expression at 30°C (Rink et al., [2005]). E. faecalis, S. aureus, S. pneumonia, and L. monocytogenes were grown in GM17 at 37°C or GM17 agar at different temperatures for agar diffusion assay. M. luteus was grown in Luria-Bertani broth shaken (200 rpm) at 30°C or LB agar at 20°C for agar diffusion assay. Bacillus strains were cultured in Brain Heart Infusion (BHI) shaken (200 rpm) or BHI agar at different temperatures for agar diffusion assay.
(§2) For the agar well diffusion assay, the same cultures as in the MIC value test were used and diluted 200 times with solid media. Identical sizes of wells (7.5 mm diameter) were made and 2 μg of hinge region analogs dissolved in 20 μl 0.05% acetic acid were added. The plates were incubated at different temperatures for at least 1 day until apparent halos appeared. For activity test at low temperature, the indicators were diluted in the same way but poured into smaller plates (52 mm diameter). The plates were incubated at 4°C overnight before the peptides were added. B. sporothermodurans IC4 and B. cereus 4153 were first incubated with the peptides at 4°C for 2 weeks then moved to 30°C and incubated overnight. The diameters of the halos were measured.
(§3) The antimicrobial activity of the hinge region analogs in solid media were tested by an agar well diffusion assay. The diameters of the halos were measured and the residual activity of the analogs were estimated according to the formula of the relationship between the concentration of nisin and the sizes of halos. We made use of the fact that the size of the halo is directly related to the log of nisin concentration. Of course this is an estimate of activity of the variants because any changes in diffusion of the variant bacteriocin or growth rates of indicator bacteria during the assay could also affect the size of the halo. (Table 5 and Supplementary Figure 1). The plates were shown in supplementary data (Supplementary Figures 2–8). […] And against L. lactis at 20°C, the inhibition zone was larger than nisin. […] The M. luteus grows quite fast at room temperature and only the +2 variant retained 55% of the activity of nisin. […]
(§4) To evaluate the activity of nisin on the agar plate, an agar well diffusion assay with gradient of nisin against Lactococcus lactis ( with two plasmids) was performed ( Supplementary Figur e 1 A). The diameter of the halos were measured (Supplementary Figure 1B). […]
(§5) the concentration of nisin is in liner relationship with diameter of the halos ( Supplementary Fi g u re 1C). According to the formula (1) , the relative activity of the peptides compared to nisin can be calculated b y the formula ( 2) .
(§6) Supplementary Figure 1. Relationship between concentration of nisin and diameter of the halos. (A) Agar well diffusion assay. Gradient concentration of nisin were made and dissolved in 30µl 0.05% acetic acid. Lactococcus lactis ( with two plasmids) was cultured overnight and diluted 250 times with GM17 agar before added to the plate. The final concentration of the cells was about 2×10^6 cells/milliliter. The plate was incubated for 1 da y. Concentrations of nisin were labeled. (B) log10 of the concentrati ons and diameters of the halo. (C) A linear curve w as made betw een t he diameters of the halo and log10s of the concentration of nisin.
(§7) (1 picture or pasted object on this page, not shown here)
(§8) Last Name a uthor 1 et al. Running Title
(§9) C = concentration of nisin d° = diameter of the halo of wild t ype […]

E. faecalis VE14089 = experiment: Agar well diffusion assay; type: cell-based, Enterococcus faecalis; settings: estimated from halo diameter by nisin standard curve, relative to wt
Method: as §1, §2, §3, §4, §5, §6, §7, §8, §9

M. luteus = experiment: Agar well diffusion assay; type: cell-based, Micrococcus luteus; settings: 20 °C; estimated from halo diameter by nisin standard curve, relative to wt
Method: as §1, §2, §3, §4, §5
as §6, with “nisin. […]” for “nisin.”

S. aureus = experiment: Agar well diffusion assay; type: cell-based, Staphylococcus aureus; settings: 20 °C; estimated from halo diameter by nisin standard curve, relative to wt
Method: as §1, §2, §3, §4, §5
as §6, with “nisin. […]” for “nisin.”

[1] = tested on: Streptococcus pneumoniae R6; experiment: MIC in liquid culture; type: cell-based; settings: MIC value of nisin divided by that of the analog
Method: as §1
(§10) The indicator strains were cultured until OD (600 nm) reached 0.5. Before MIC value test, the culture was diluted 1000 times to make the concentration of cells around 5 × 10^5 per milliliter. The test was performed using a temperature controlled plate reader [Tecan200 (Tecan Group AG)] and 96 well plate (Greiner Bio-one). 180 μl indicator strain culture mixed with 20 μl hinge region analogs with final concentration from 0.031 μg/ml–32 μg/ml was incubated at 30°C or 37°C for 18 h. OD (600 nm) was checked every 30 min. For aerobic strains, 2 min of shaking was performed before every check. The concentration of peptide without observed growth of indicator strains was considered as the MIC value.

Listeria monocytogenes = experiment: MIC in liquid culture; type: cell-based; settings: MIC value of nisin divided by that of the analog
Method: as §1, §10

[2] = tested on: Lactococcus lactis MG1363; experiment: MIC in liquid culture; type: cell-based; settings: MIC value of nisin divided by that of the analog
Method: as §1, §10

Micrococcus luteus = experiment: MIC in liquid culture; type: cell-based; settings: MIC value of nisin divided by that of the analog
Method: as §1, §10

Bacillus cereus 4147 = experiment: MIC in liquid culture; type: cell-based; settings: MIC value of nisin divided by that of the analog
Method: as §1, §10

Staphylococcus aureus = experiment: MIC in liquid culture; type: cell-based; settings: MIC value of nisin divided by that of the analog
Method: as §1, §10

[3] = tested on: Enterococcus faecalis VE14089; experiment: MIC in liquid culture; type: cell-based; settings: MIC value of nisin divided by that of the analog
Method: as §1, §10

[4] = tested on: Bacillus cereus (L′29) 16; experiment: MIC in liquid culture; type: cell-based; settings: MIC value of nisin divided by that of the analog
Method: as §1, §10

Bacillus cereus 4153 = experiment: MIC in liquid culture; type: cell-based; settings: MIC value of nisin divided by that of the analog
Method: as §1, §10

B. sporothermodurans IC4 = experiment: Agar well diffusion assay; type: cell-based, Bacillus sporothermodurans; settings: 30 °C; estimated from halo diameter by nisin standard curve, relative to wt
Method: as §1
as §2, with “B. sporothermodurans IC4 and B. cereus 4153 were first incubated with the peptides at 4°C for 2 weeks then moved to 30°C and incubated overnight.” left out
The antimicrobial activity of the hinge region analogs in solid media were tested by an agar well diffusion assay. The diameters of the halos were measured and the residual activity of the analogs were estimated according to the formula of the relationship between the concentration of nisin and the sizes of halos. […]
as §4
the concentration of nisin is in liner relationship with diameter of the halos ( Supplementary Fi g u re 1C). According to the formula (1) , the relative activity of the peptides compared to nisin can be calculated b y the formula ( 2) . […]

L. lactis MG1363 = experiment: Agar well diffusion assay; type: cell-based, Lactococcus lactis; settings: relative to wt
Method: as §1, §2, §3, §4, §5, §6, §7, §8, §9

Bacillus cereus = experiment: Agar well diffusion assay against Bacillus strains (Supplementary Figure 8); type: cell-based; settings: 30°C for 18 hours, BHI agar, 5 µg nisin or +2 analogue in 50 µl 0.05% acetic acid
Method: The antimicrobial activity of the hinge region analogs in solid media were tested by an agar well diffusion assay. The diameters of the halos were measured and the residual activity of the analogs were estimated according to the formula of the relationship between the concentration of nisin and the sizes of halos. We made use of the fact that the size of the halo is directly related to the log of nisin concentration. Of course this is an estimate of activity of the variants because any changes in diffusion of the variant bacteriocin or growth rates of indicator bacteria during the assay could also affect the size of the halo. (Table 5 and Supplementary Figure 1). The plates were shown in supplementary data (Supplementary Figures 2–8). […] And against L. lactis at 20°C, the inhibition zone was larger than nisin. […] The M. luteus grows quite fast at room temperature and only the +2 variant retained 55% of the activity of nisin.
Supplementary Figure 7.Agar well diffusion assays of hinge region analogues against Bacillus sporotherm odurans IC4 . 2 µg of peptides w ere added per w ell. The plates were incub ated at 30 ° C […]
Supplementary Figure 8.Agar well diffusion assays of hinge region analogues against 4 kinds of Bacillus strains . 5µl overnight culture was mixed with 5ml BHI agar and poured into the plate. […]

[5] = tested on: Bacillus sporothermodurans IC4; experiment: MIC in liquid culture; type: cell-based; settings: MIC value of nisin divided by that of the analog
Method: as §1, §10

[6] = 20 °C, estimated from halo diameter by nisin standard curve (halo diameter vs log of nisin concentration)
[7] = 30 °C, estimated from halo diameter by nisin standard curve

Compound | Residual activity (L. monocytogenes; 20 °C) [%] | Residual activity (L. monocytogenes; 30 °C) [%] | Residual activity (E. faecalis VE14089; 20 °C) [%] | Residual activity (E. faecalis VE14089; 30 °C) [%] | Residual activity (E. faecalis VE14089; 37 °C) [%] | Residual activity (M. luteus) [%] | Residual activity (S. aureus) [%] | Residual activity of variants compared to nisin [1] [%] | Residual activity of variants compared to nisin (Listeria monocytogenes) [%] | Residual activity of variants compared to nisin [2] [%] | Residual activity of variants compared to nisin (Micrococcus luteus) [%] | Residual activity of variants compared to nisin (Bacillus cereus 4147) [%] | Residual activity of variants compared to nisin (Staphylococcus aureus) [%] | Residual activity of variants compared to nisin [3] [%] | Residual activity of variants compared to nisin [4] [%] | Residual activity of variants compared to nisin (Bacillus cereus 4153) [%] | Residual activity (B. sporothermodurans IC4) [%] | Residual activity (L. lactis MG1363; [6]) [%] | Residual activity (L. lactis MG1363; [7]) [%] | also measured
C=C(NC(=O)[C@@H](NC(=O)[C@H](Cc1c[nH]cn1)NC(=O)[C@@H](NC(=O)[C@H](CO)NC(=O)[C@@H]1CS[C@@H](C)[C@H]2NC(=O)[C@H](C)NC(=O)[C@H](NC(=O)[C@H](CCCCN)NC(=O)[C@H](CCSC)NC(=O)[C@@H](NC(=O)[C@@H](NC(=O)[C@H](CC(N)=O)NC(=O)[C@@H]3CS[C@@H](C)[C@@H](NC(=O)[C@H](CCCCN)NC(=O)[C@@H]4CS[C@@H](C)[C@@H](NC(=O)[C@@H]5CSC[C@@H](NC(=O)/C(=C/C)NC(=O)[C@@H](N)[C@@H](C)CC)C(=O)N[C@@H]([C@@H](C)CC)C(=O)NC(=C)C(=O)N[C@@H](CC(C)C)C(=O)N5)C(=O)N5CCC[C@H]5C(=O)NCC(=O)N4)C(=O)NCC(=O)N[C@@H](C)C(=O)N[C@@H](CC(C)C)C(=O)N[C@@H](CCSC)C(=O)NCC(=O)N3)[C@@H](C)CC)C(C)C)[C@H](C)SC[C@H](NC2=O)C(=O)N[C@@H](Cc2c[nH]cn2)C(=O)N1)[C@@H](C)CC)C(C)C)C(=O)N[C@@H](CCCCN)C(=O)O [+2] | 139 | 114 | 144 | 88 | 101 | 55 | 22 | 25 | 50 | 25 | 25 | 50 | <6 | 30 | 25 | 50 | 236 | 140 | 114 | plate activity compared to nisin (Bacillus cereus): either equal or higher plate activity than nisin
C=C(NC(=O)[C@@H](NC(=O)[C@H](Cc1c[nH]cn1)NC(=O)[C@@H](NC(=O)[C@H](CO)NC(=O)[C@@H]1CS[C@@H](C)[C@H]2NC(=O)[C@H](C)NC(=O)[C@H](NC(=O)[C@H](CCCCN)NC(=O)[C@H](CC(N)=O)NC(=O)[C@@H]3CS[C@@H](C)[C@@H](NC(=O)[C@H](CCCCN)NC(=O)[C@@H]4CS[C@@H](C)[C@@H](NC(=O)[C@@H]5CSC[C@@H](NC(=O)/C(=C/C)NC(=O)[C@@H](N)[C@@H](C)CC)C(=O)N[C@@H]([C@@H](C)CC)C(=O)NC(=C)C(=O)N[C@@H](CC(C)C)C(=O)N5)C(=O)N5CCC[C@H]5C(=O)NCC(=O)N4)C(=O)NCC(=O)N[C@@H](C)C(=O)N[C@@H](CC(C)C)C(=O)N[C@@H](CCSC)C(=O)NCC(=O)N3)[C@H](C)SC[C@H](NC2=O)C(=O)N[C@@H](Cc2c[nH]cn2)C(=O)N1)[C@@H](C)CC)C(C)C)C(=O)N[C@@H](CCCCN)C(=O)O [−1] | 19 | 29 | 21 | 72 | 140 | 0 | 16 | 25 | <25 | 3 | <25 | <13 | 3 | <6 | <13 | <13 | 522 | 33 | 17 | Residual activity of variants compared to nisin [5]: 50%
